Measurements from patent US8158811B2, “Unsaturated fatty hydroxy acid derivatives and the dermocosmetologic use thereof” (Pierre Fabre Dermo-Cosmetique, priority 2005, dated 2012).

Legend:
[1] = system: ABCG1; test: keratinocyte differentiation, real-time RT-PCR of ABCG1 transcripts; assay type: cell-based, human; details: NHK, 48 hours
Protocol: (§1) Normal human keratinocytes (NHK) proliferate and differentiate in vitro, forming stratified layers which mimic the basal organisation of the skin. Extracellular calcium concentrations in excess of 0.1 mM initiate a cascade of genome and non-genome events which take the keratinocytes from a proliferative phase towards a differentiation phase. Keratinocyte differentiation can then be evaluated by studying the expression of several markers such as keratins 1 and 10, transglutaminase 1, desaturase DES2, involucrine, FATP4 and ABCG1 transporters. We therefore evaluated the effect of certain hydroxyalcene carboxylic acids in an in vitro culture model.
(§2) Normal human keratinocytes are isolated from skin explants. They are cultured in KSFM medium (Gibco) with a low calcium content (0.1 mM) containing 25 μg/ml of BPE (bovine pituitary extract) and […] of EGF (epithelium growth factor). 24 hours after culturing, differentiation is triggered by the addition of calcium (final concentration 1.2 mM). The active ingredients are added or not at the same time as calcium at concentrations of 100 and 1 μg/ml in order to determine whether or not they have a potentialising effect on differentiation. Cells were then analysed 48 hours after the addition of calcium and these products.
(§3) Total RNA was extracted under cold conditions from keratinocytes.
(§4) After reverse transcription of mRNA into cDNA, PCRs were made up in 96 well plates (iCycler quantitative PCR apparatus, BioRad). Expression of transcripts of transglutaminase, desaturase (DES2), ABCG1 and FATP4 were standardized with respect to the expression of reference genes (GAPDH, UBC, HPRT).

[2] = system: FATP4; test: keratinocyte differentiation, real-time RT-PCR of FATP4 transcripts; assay type: cell-based, human; details: NHK, 48 hours
Protocol: as §1, §2, §3, §4

[3] = system: transglutaminase 1 (TG1); test: keratinocyte differentiation, real-time RT-PCR of transglutaminase 1 transcripts; assay type: cell-based, human; details: NHK, 48 hours
Protocol: as §1, §2, §3, §4

[4] = system: membrane lipids, fibroblast line L929; test: TBARS test, lipid peroxidation after H2O2/Fe2+/Fe3+; assay type: cell-based, murin; details: 0.02 ng/ml, pretreated 16 hours
Description: In order to evaluate membrane changes, we measured lipid peroxidation by in vitro assay of complexes between the products of lipid oxidation and thiobarbituric acid. These complexes are called TBARS (thiobarbituric acid reactive substances) and give the test its name: TBARS Test.
In order to mimic chemical oxidative stress, we treated a fibroblast line (L929) with a complex consisting of hydrogen peroxide (H2O2) and iron (Fe^2+/Fe^3+) thus reconstituting the Fenton reaction which is the source of oxygenated free radicals and particularly the hydroxyl radical (OH°) (D. A Vessey et al. 1992): H2O2+Fe^2+→OH°+OH^−+Fe^3+
The products were evaluated on a murin fibroblast line L929. Cells were pretreated with different concentrations of the product for 16 hours and were then stimulated with the H2O2/Fe^2+/Fe^3+ complex (200 μM−1 mM) for 1 hour. • Stock solutions: 100 mg/ml ethanol, 4° C. • Final solutions: 0.02 ng/ml.
Peroxidation of membrane lipids was analysed by measuring TBARS (Protocol ref. PLN°2, according to Morliere et al, 1991).
[…]. TBARS assays are therefore expressed in pmole/μg of protein. Proteins and TBARS are assayed in the intracellular medium.
Using the TBARS calculation in pmole/μg protein, we calculated the protective efficacy of various products against the oxidation of lipid membranes.
Four separate experiments were carried out. Several compounds were evaluated in the course of these experiments (the test only allows 10 molecules to be evaluated at one time). The compounds were evaluated several times and were chosen as a function of the results obtained in another test which also measured anti-radical activity (assay test for activated oxygen species).
The model used in this experiment (Fenton reaction) triggers considerable lipid peroxidation of the L929 fibroblasts. This massive release of the hydroxyl radical OH° thus generates oxidative stress in the cells, particularly in the membranes. However, in this type of oxidative reaction, the products resulting from lipid peroxidation are internalized in the cells and TBARS are therefore assayed in the intracellular medium.

[5] = system: Interleukin 8; test: release of Interleukin 8 by keratinocytes NHK stimulated with PMA + calcium ionophore A23187 (ELISA); assay type: cell-based, human; details: for % inhibition of IL-8 release: 3 μg/ml, keratinocytes, PMA + A23187 6 hours; for % Inhibition a 3 μg/ml: IL8 release, NHK, PMA + A23187
Protocol: In this study, carried out using 96 well plates, we evaluated the activity of hydroxyl alkine acids on the production of Interleukin 8 produced in the keratinocytes by phorbol ester PMA and calcium ionophore A23187.
A suspension of keratinocytes in supplemented KSFM was divided between 96 well plates (3.10^4 cells/wells) and incubated for 16 hours at 37° C. under an atmosphere of 5% CO2. The keratinocytes were then rinsed with PBS in order to eliminate non adhering cells then exposed to the products to be tested included in non supplemented KSFM (which could interfere with the assay).
The concentration tested in culture was 3 μg/ml. This was retained after a preliminary test to evaluate cytotoxicity (neutral red) and is not cytotoxic.
3 wells were used for each treatment. Cells were preincubated for 60 minutes with the products to be tested then stimulated, in parallel to negative controls without stimulant: Phorbol Myristate Acetate (PMA) 1 μm+Calcium ionophore (A23187) 0.1 μm.
Incubation for 6 hours at 37° C. in a humid air atmosphere containing 5% CO2.
The culture medium for each of the wells was recovered, centrifuged at 3000 rpm and stored at −80° C.
Cytokine assay: IL8 was assayed using the ELISA kit immunoenzyme method (immunotech).
The results are given as percentage activity/stimulated control.
The compounds according to the invention were evaluated in terms of anti-inflammatory activity on the release of Interleukin 8 by human keratinocytes NHK stimulated by phorbol ester PMA+calcium ionophore A23187.

[6] = system: desaturase DES2; test: keratinocyte differentiation, real-time RT-PCR of DES2 transcripts; assay type: cell-based, human; details: NHK, 48 hours
Protocol: as §1, §2, §3, §4

Row | Structure (SMILES) | Induction Factor vs Control (CaCl2 1.2 mM) ABCG1 ([1]; 1 μg/ml) | Induction Factor vs Control (CaCl2 1.2 mM) FATP4 ([2]; 1 μg/ml) | Induction Factor vs Control (CaCl2 1.2 mM) TG1 ([3]; 1 μg/ml) | % membrane lipid protection, Mean [4] | % inhibition of IL-8 release [5] | % Inhibition a 3 μg/ml [5] | Induction Factor vs Control (CaCl2 1.2 mM) DES2 ([6]; 1 μg/ml) | Induction Factor vs Control (CaCl2 1.2 mM) ABCG1 ([1]; 100 μg/ml) | Induction Factor vs Control (CaCl2 1.2 mM) FATP4 ([2]; 100 μg/ml) | Induction Factor vs Control (CaCl2 1.2 mM) TG1 ([3]; 100 μg/ml) | Induction Factor vs Control (CaCl2 1.2 mM) DES2 ([6]; 100 μg/ml)
1 | O=C(O)C(F)=CCCCCCCCCCCCCCCO [n=13, R=H, Rn=H, R1=F, 17-hydroxy-heptadec-2-fluoro-2-enoic acid] | 4.8 | 2.2 | 4.2 | 7.39% | 107% | 107% | 9.0 | – | – | – | –
2 | O=C(O)/C=C/CCCCCCCCCCCO [n=10, R=H, Rn=H, R1=H, 14-hydroxy-tetradec-2t-enoic acid] | 1.4 | 1.2 | 1.5 | 27.18% | 30% | – | 2.0 | 25.5 | 5.9 | 31.4 | 125.8
3 | O=C(O)C=CCCCCO [n=3, R=H, Rn=H, R1=H] | 1.5 | 1.4 | 1.2 | 15.7% | 50% | – | 1.6 | 4.0 | 1.2 | 2.6 | 2.4
4 | O=C(O)C=CCCCCCO [n=4, R=H, Rn=H, R1=H] | 1.2 | 1.0 | 1.2 | 37.88% | 15% | – | 1.0 | 2.5 | 1.4 | 1.7 | 2.2
5 | O=C(O)C(F)=CCCCCCO (mixture of isomers) [n=4, R=H, Rn=H, R1=F] | 2.6 | 1.3 | 1.6 | 36.54% | Non-active | – | 2.2 | 2.6 | 1.4 | 1.7 | 3.2
6 | O=C(O)C(F)=CCCCCCCCCCCCO [n=10, R=H, Rn=H, R1=F, 14-hydroxy-tetradec-2-fluoro-2-enoic acid] | 1.4 | 1.0 | 1.4 | 13.13% | 30% | – | 1.6 | 4.6 | 2.3 | 3.5 | 16.0
7 | O=C(O)/C=C/CCCCCCCCCCO [n=9, R=H, Rn=H, R1=H, 13-hydroxy-tridec-2t-enoic acid] | 1.5 | 1.2 | 1.4 | 8.72% | 16% | – | 1.8 | 13.8 | 4.5 | 14.8 | 51.7
8 | O=C(O)/C=C/CCCCCCCCCCCCCCO [n=13, R=H, Rn=H, R1=H, 17-hydroxy-heptadec-2t-enoic acid] | 3.0 | 1.4 | 1.4 | 22.10% | 62% | 62% | 3.0 | – | – | – | –
